What was measured:
Recombinant mouse CD38 = Recombinant mouse CD38 (Mus musculus (Mouse), UniProt P56528); assay: Mouse CD38 hydrolase assay (fluorescence, ε-NAD substrate); type: biochemical; details: recombinant mouse CD38 0.4 nM, 12 μM ε-NAD, 30 min preincubation at 25° C., pH 7.4
Protocol: (§1) The ability of test compounds to inhibit mouse CD38 hydrolase activity was measured in a fluorescence-based assay using non-physiological NAD^+ substrate analogue 1,N^6-etheno NAD^+ (ε-NAD). Recombinant mouse CD38 (0.4 nM) was preincubated with test compounds in 384-well black microplates for 30 min at 25° C. in PBS (—Ca^2+/Mg^2+) containing 0.005% BSA (pH 7.4). CD38 hydrolase activity was initiated by addition of 12 μM ε-NAD, which yields the fluorescent product 1,N^6-etheno ADP-ribose. Formation of fluorescent product was followed using ClarioStar Plus (BMG) microplate reader by reading fluorescence (excitation λ=300 nm; emission λ=410 nm) at two time points, one immediately after substrate addition (t=0) and one at 6 min (t=6).
(§2) Data was analysed by subtracting the values detected at t=0 from t=6 to correct for variation in baseline fluorescence, and fluorescence values were converted to percent inhibition using the average of high signal (CD38 and ε-NAD) and low signal (CD38 and ε-NAD in the presence of a tool CD38 inhibitor) control wells. IC50 values were determined from a 10-point, half log concentration response curve with a four-parameter logistic equation.

[1] = Tissue binding assay, plasma (equilibrium dialysis); type: in vitro ADME; details: dialysis 4 hours at 37° C.
Protocol: [The source words this procedure for another target and reports this target under the same test.] Buffer preparation. A basic solution was prepared by dissolving 14.2 g/L Na2HPO4 and 8.77 g/L NaCl in deionized H2O. An acidic solution was prepared by dissolving 15.6 g/L NaH2PO4·2H2O and 8.77 g/L NaCl in deionized H2O. Using the acidic solution, the basic solution was then titrated to pH 7.4±0.1 and stored at 4° C. for up to 1 month. The stop solution was 100% CH3CN containing 200 ng/mL tolbutamide, 200 ng/mL labetalol and 50 ng/mL metformin.
Test method. Dialysis membrane strips were soaked in ultra-pure water at room temperature for ˜1 hour. Each membrane strip containing 2 membranes was separated and soaked in 20:80 EtOH/H2O (v/v) for ˜20 min, after which they were ready for use or were stored in the solution at 2-8° C. for up to 1 month. Prior to the experiment, the membrane was rinsed and soaked for 20 min in ultra-pure water. On the day of experiment, brain homogenate was thawed in a water bath at room temperature and incubated at 37° C. for 10 min before use. Test and control compounds were dissolved in DMSO to achieve 10 mM stock solutions. DMSO working solutions were prepared at 400 μM by diluting 10 μL of stock solution. To prepare the time zero (t=0) samples to be used for recovery determination, 50 μL aliquots of loading matrix were transferred in triplicate to the sample collection plate. The samples were immediately matched with opposite blank buffer to obtain a final volume of 100 μL of 1:1 matrix/dialysis buffer (v/v) in each well. 500 μL of stop solution were added to these t=0 samples. They were then stored at 2-8° C. pending further processes along with other post-dialysis samples. To load the dialysis device, an aliquot of 150 μL of the loading matrix was transferred to the donor side of each dialysis well in triplicate, and 150 μL of the dialysis buffer was loaded to the receiver side of the well. The dialysis plate was placed in a humidified incubator at 37° C. with 5% CO2 on a shaking platform that rotated slowly (about 100 rpm) for 4 hours. At the end of the dialysis, aliquots of 50 μL of samples were taken from both the buffer side and the matrix side of the dialysis device. These samples were transferred into new 96-well plates. Each sample was mixed with an equal volume of opposite blank matrix (buffer or matrix) to reach a final volume of 100 μL of 1:1 matrix/dialysis buffer (v/v) in each well. All samples were further processed by adding 500 μL of stop solution containing internal standards. The mixture was vortexed and centrifuged at 4000 rpm for about 20 min. An aliquot of 100 μL of supernatant of all the samples was then removed for LC-MS/MS analysis. The single blank samples were prepared by transferring 50 μL of blank matrix to a 96-well plate and adding 50 μL of blank PBS buffer to each well. Then the matrix-matched samples were further processed by adding 500 μL of stop solution containing internal standards, following the same sample processing method as the dialysis samples.
Data analysis. The % undiluted unbound, % undiluted bound and % recovery were calculated using the following equations:
% Undiluted Unbound=100*1/D/((1/(F/T)−1)+1/D)
% Undiluted Bound=100−% Undiluted Unbound
where F is the analyte concentration or peak area ratio of analyte/internal standard on the buffer (receiver) side of the membrane; T is the analyte concentration or peak area ratio of analyte/internal standard on the matrix (donor) side of the membrane; To is the analyte concentration or the peak area ratio of analyte/internal standard in the loading matrix sample at time zero; and D is the dilution factor determined as 4 in this assay.

Recombinant human CD38 = Recombinant human CD38 (Homo sapiens (Human), UniProt P28907); assay: Human CD38 hydrolase assay (fluorescence, ε-NAD substrate); type: biochemical; details: recombinant human CD38 0.8 nM, 4 μM ε-NAD, 30 min preincubation at 25° C., pH 7.4
Chain of Recombinant human CD38 (P28907 whole entry): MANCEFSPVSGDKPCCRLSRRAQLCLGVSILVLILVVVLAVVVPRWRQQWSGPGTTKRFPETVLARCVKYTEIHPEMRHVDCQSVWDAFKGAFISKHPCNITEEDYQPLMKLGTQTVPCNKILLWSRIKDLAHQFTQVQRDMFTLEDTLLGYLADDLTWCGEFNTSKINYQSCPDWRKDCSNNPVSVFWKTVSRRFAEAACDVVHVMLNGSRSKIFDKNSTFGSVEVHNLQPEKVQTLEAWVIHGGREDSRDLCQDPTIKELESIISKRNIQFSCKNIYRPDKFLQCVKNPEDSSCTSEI
Protocol: as §1, with “inhibit human” for “inhibit mouse”, “Recombinant human” for “Recombinant mouse”, “CD38 (0.8” for “CD38 (0.4”, “of 4” for “of 12”, “at 10” for “at 6”, “min (t=10).” for “min (t=6).”
as §2, with “t=10” for “t=6”, “fluorescence. Fluorescence” for “fluorescence, and fluorescence”

Chain of Recombinant mouse CD38 (P56528 whole entry): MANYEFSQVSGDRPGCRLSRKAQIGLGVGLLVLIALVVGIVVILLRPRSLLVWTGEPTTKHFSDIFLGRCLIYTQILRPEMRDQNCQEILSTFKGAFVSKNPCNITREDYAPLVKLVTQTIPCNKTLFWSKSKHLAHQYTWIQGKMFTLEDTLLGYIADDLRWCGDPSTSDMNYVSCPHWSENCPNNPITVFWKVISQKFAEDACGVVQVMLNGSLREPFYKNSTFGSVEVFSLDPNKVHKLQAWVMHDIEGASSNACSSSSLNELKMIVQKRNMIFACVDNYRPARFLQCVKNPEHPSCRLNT

Row | Compound | IC50 (Recombinant mouse CD38) [nM] | Mouse plasma (% unbound) [1] [% unbound] | IC50 (Recombinant human CD38) [nM]
1 | Cc1cc(C(=O)N[C@H]2CC[C@H](NCC(F)(F)F)CC2)nc(-n2ccnc2)n1 [Example 1, 2-(1H-imidazol-1-yl)-6-methyl-N-((1r,4r)-4-((2,2,2-trifluoroethyl)amino)cyclohexyl)pyrimidine-4-carboxamide] | ≤ 40 | 13.0 | ≤ 40
2 | Cc1cc(C(=O)N[C@H]2CC[C@H](NCC(F)F)CC2)nc(-n2ccnc2)n1 [Example 2, N-((1r,4r)-4-((2,2-difluoroethyl)amino)cyclohexyl)-2-(1H-imidazol-1-yl)-6-methyl-pyrimidine-4-carboxamide] | ≤ 40 | 22.7 | ≤ 40
3 | O=C(N[C@H]1CC[C@H](NCC(F)F)CC1)c1cc(C2CC2)nc(-n2ccnc2)n1 [Example 3, 6-cyclopropyl-N-((1r,4r)-4-((2,2-difluoroethyl)amino)cyclohexyl)-2-(1H-imidazol-1-yl)pyrimidine-4-carboxamide] | ≤ 40 | 7.4 | ≤ 40
4 | Cc1cc(C(=O)N[C@H]2CC[C@H](N3CCC(F)(F)C3)CC2)nc(-n2ccnc2)n1 [Example 10, N-((1r,4r)-4-(3,3-difluoropyrrolidin-1-yl)cyclohexyl)-2-(1H-imidazol-1-yl)-6-methyl-pyrimidine-4-carboxamide] | ≤ 40 | 10.6 | ≤ 40
5 | Cc1cc(C(=O)N[C@H]2CC[C@H](NC(C)(C)C(F)(F)F)CC2)nc(-n2ccnc2)n1 [Example 21, 2-(1H-imidazol-1-yl)-6-methyl-N-((1r,4r)-4-((1,1,1-trifluoro-2-methylpropan-2-yl)amino)cyclohexyl)pyrimidine-4-carboxamide] | ≤ 40 | 4.1 | ≤ 100
